# “And” between values parts separate entries of the source, which are not always exact repeats. Identical values can stand only once. Like-named read-outs stand apart in the source and are kept apart here.
# Tests used:
# P-gp and CYP3A = conditions: cited from earlier work
# CYP3A and P-gp [1] = test system: CYP3A and P-gp; parameters: method as in PMID 33030266; conditions: assumed in model development, verified with clinical DDI studies; cited from earlier work
# [2] = PBPK models of enzalutamide and M2 (Simcyp)
# Excerpt: Many of the physicochemical properties and plasma protein binding data were obtained internally and also referenced from FDA documents, which are available from the FDA website. […] Accordingly, the solution formulation option in the Simcyp model was used.
# The PBPK models of CYP2C8 inhibitor (gemfibrozil), CYP3A4 substrate (midazolam), and P-gp substrate (digoxin) were used from the Simcyp software library with models that were verified for their intended purpose.
# clinical = conditions: human, plasma, po, 160 mg; for Cmax: observed, mean
# CYP3A4 [3] = assay: in vitro; conditions: human, freshly isolated, cultured human hepatocytes
# CYP3A4 [4] = target: CYP3A4 (Homo sapiens, UniProt P08684); assay: In vitro CYP3A4 inhibition (internal data); assay type: biochemical
# [5] = mean
# CYP3A4 [6] = test system: CYP3A4
# [7] = plasma; ref FDA CP review; cited from earlier work
# OAT3 = target: T1, OAT3 (Homo sapiens, UniProt Q8TCC7); assay: In vitro OAT3 inhibition (internal data); assay type: cell-based
# T1 sequence (Q8TCC7 1-542): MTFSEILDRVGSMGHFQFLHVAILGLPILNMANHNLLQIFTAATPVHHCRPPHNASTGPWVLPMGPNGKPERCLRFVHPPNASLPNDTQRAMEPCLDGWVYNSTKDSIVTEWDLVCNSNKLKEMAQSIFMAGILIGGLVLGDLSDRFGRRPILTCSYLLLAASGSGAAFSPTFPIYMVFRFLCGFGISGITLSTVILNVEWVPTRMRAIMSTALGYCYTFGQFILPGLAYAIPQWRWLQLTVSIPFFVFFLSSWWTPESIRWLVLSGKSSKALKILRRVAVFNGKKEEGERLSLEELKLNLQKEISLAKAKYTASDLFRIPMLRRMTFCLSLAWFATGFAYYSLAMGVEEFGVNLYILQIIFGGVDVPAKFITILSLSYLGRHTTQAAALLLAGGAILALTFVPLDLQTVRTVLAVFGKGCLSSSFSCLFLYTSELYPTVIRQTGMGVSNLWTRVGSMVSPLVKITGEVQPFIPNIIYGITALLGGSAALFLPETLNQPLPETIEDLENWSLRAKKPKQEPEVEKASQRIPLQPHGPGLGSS
# CYP3A5 = CYP3A5 (Homo sapiens, UniProt P20815); assay: In vitro CYP3A5 inhibition (internal data); assay type: biochemical
# [8] = parameters: method as in FDA CP review; conditions: ref FDA CP review; cited from earlier work
# [9] = Caco-2 passive permeability; assay type: in vitro ADME; conditions: human, Caco-2, pH 6.5; internal data; read-out: Papp Caco-2 passive permeability (pH6.5:7.5)
# [10] = cited from earlier work
# P-gp (human MDR1) = P-gp (human MDR1) (Homo sapiens, UniProt P08183); assay: In vitro P-gp inhibition: 3H-digoxin permeation across control and MDR1-expressing LLC-PK1 cell monolayers
# Protocol: MDR1-expressing cells (porcine kidney epithelial LLC-PK1 cells transfected with human MDR1 cDNA) was used. The MDR1-expressing cells were seeded at a density of 4 × 10^4 cells/insert in plates and were incubated in a CO2 incubator (37 °C, CO2: 5%) for 7 to 9 days to prepare cell monolayers. […] After incubation for 4 h at 37 °C, a 70-μL aliquot of the incubation solutions was collected as the analytical sample from the opposite compartment of that spiked with test solutions (receiver compartment). The collected samples were immediately combined with 10 mL of scintillator, and the radioactivity was counted using the LSC. Permeability coefficient (Papp) of ^3H-digoxin was calculated using the following equation: Pappcm/sec=[dQ/dt]/A/C0 where dQ/dt is the transport rate (dpm/sec); A is the membrane area (cm^2); C0 is the initial concentration (dpm/mL). The ratio of permeability coefficient (Papp ratio) was calculated from the basal to apical Papp and apical to basal Papp according to the following equation: Pappratio=BasaltoapicalPapp/ApicaltobasalPapp
# Furthermore, the ratios of the Papp ratios in MDR1-expressing cells to the Papp ratios in control cells were calculated as corrected Papp ratio according to the following equation: CorrectedPappratio=PappratiooftheMDR1expressingcells/Pappratioofthecontrolcells
# The % of control was calculated from the corrected Papp ratio according to the following equation: \% \,of\,control=CorrectedPappratio\,in\,the\,absence\,or\,presence\,of\,inhibitors/CorrectedPappratio\,in\,the\,absence\,of\,inhibitors×100
# CYP2C19 = CYP2C19 mRNA induction in cultured human hepatocytes
# CYP2C8 = CYP2C8 mRNA induction in cultured human hepatocytes
# CYP2C9 = CYP2C9 mRNA induction in cultured human hepatocytes
# CYP1A2 [11] = assay: CYP1A2 mRNA induction in cultured human hepatocytes
# CYP2B6 = CYP2B6 mRNA induction in cultured human hepatocytes
# P-gp = P-gp mRNA induction in cultured human hepatocytes; assay type: cell-based
# CYP1A2 [12] = conditions: human, hepatocytes, 50 µmol/L
# intestinal P-gp = conditions: multiple-dose 600 mg rifampicin, Western blot; cited from earlier work
# CYP3A and P-gp [13] = test system: CYP3A and P-gp; parameters: method as in PMID 33030266; conditions: assumed in model development, verified with clinical DDI studies; cited from earlier work; remark: listed apart in the source
# [14] = retrograde calculation from CLpo 0.60 L/h
# [15] = once-daily oral 160 mg enzalutamide for 49 days
# [16] = single oral 160 mg enzalutamide
# [17] = 100 µmol/L (enzalutamide, M2: two lots of hepatocyte)
# [18] = 3H-digoxin 1 µmol/L, additive 0.1 µmol/L
# [19] = 3H-digoxin 1 µmol/L, additive 0.3 µmol/L
# [20] = 3H-digoxin 1 µmol/L, additive 1 µmol/L
# [21] = 3H-digoxin 1 µmol/L, additive 3 µmol/L
# [22] = 3H-digoxin 1 µmol/L, additive 10 µmol/L
# [23] = 3H-digoxin 1 µmol/L, additive 25 µmol/L
# Chain of P-gp (human MDR1) (P08183 whole entry): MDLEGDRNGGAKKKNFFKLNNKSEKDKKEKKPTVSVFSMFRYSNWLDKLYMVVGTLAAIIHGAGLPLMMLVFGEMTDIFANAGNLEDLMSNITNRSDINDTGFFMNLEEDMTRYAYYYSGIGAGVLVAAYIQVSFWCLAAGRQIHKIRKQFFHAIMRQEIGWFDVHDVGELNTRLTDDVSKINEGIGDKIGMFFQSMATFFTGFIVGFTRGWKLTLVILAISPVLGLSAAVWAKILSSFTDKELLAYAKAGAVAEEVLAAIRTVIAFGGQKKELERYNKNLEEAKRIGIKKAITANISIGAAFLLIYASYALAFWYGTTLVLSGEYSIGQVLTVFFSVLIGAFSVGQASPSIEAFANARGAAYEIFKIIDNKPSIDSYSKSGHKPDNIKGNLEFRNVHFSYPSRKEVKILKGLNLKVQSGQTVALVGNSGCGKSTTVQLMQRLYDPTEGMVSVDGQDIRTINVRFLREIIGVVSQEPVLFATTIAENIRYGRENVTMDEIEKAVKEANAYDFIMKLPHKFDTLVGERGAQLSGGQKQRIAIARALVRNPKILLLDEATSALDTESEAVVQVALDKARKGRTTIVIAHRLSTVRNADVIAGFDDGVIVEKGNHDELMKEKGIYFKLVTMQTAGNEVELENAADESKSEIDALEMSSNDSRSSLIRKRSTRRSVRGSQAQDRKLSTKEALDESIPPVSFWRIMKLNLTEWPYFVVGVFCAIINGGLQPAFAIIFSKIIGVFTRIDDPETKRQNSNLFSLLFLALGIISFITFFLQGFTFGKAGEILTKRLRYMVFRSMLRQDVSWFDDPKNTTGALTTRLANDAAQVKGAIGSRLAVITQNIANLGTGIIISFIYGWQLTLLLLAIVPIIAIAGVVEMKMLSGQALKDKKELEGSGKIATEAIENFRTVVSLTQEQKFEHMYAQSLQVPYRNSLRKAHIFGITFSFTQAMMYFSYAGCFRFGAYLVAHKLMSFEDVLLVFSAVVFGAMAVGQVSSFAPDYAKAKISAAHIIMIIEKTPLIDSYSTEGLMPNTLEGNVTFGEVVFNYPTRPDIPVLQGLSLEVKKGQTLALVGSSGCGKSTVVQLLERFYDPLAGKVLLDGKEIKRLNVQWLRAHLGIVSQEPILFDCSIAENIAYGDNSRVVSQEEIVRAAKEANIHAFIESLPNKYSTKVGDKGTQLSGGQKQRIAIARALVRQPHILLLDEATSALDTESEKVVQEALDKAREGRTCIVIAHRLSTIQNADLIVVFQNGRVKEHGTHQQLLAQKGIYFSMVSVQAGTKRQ
# Chain of CYP3A5 (P20815 whole entry): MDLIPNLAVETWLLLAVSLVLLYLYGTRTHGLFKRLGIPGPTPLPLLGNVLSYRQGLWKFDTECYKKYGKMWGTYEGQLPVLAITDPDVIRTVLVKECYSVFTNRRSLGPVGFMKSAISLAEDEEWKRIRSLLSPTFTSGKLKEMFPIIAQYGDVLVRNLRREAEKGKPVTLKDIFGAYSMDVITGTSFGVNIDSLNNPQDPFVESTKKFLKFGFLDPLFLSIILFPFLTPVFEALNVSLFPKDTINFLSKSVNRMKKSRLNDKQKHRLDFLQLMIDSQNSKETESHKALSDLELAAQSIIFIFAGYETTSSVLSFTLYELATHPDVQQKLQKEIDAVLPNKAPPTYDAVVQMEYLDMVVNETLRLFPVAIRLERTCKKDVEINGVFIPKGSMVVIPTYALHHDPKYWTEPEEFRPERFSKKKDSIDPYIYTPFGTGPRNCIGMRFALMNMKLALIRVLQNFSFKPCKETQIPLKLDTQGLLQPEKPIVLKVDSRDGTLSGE
# Chain of CYP3A4 (Homo sapiens, UniProt P08684) (P08684 whole entry): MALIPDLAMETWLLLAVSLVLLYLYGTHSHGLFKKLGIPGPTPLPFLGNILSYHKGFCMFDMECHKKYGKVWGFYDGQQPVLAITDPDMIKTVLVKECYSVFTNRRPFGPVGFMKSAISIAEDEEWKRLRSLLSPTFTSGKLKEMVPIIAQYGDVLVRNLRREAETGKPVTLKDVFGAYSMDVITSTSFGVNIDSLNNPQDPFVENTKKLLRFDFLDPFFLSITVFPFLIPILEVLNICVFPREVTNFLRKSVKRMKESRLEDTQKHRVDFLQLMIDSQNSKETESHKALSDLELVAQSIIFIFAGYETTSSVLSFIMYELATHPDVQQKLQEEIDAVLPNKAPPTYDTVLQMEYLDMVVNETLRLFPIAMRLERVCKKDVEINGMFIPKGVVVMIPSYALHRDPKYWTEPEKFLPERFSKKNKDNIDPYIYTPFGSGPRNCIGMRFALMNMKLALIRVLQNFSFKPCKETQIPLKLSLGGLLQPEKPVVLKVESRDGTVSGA
smiles,measurement,setting,value
"COc1ccc(-n2nc(C(N)=O)c3c2C(=O)N(c2ccc(N4CCCCC4=O)cc2)CC3)cc1 [Apixaban, apixaban]",Decrease in AUC by rifampicin,P-gp and CYP3A; apixaban,54%
same,Contribution of CYP3A to hepatic metabolism,CYP3A and P-gp [1],42%
CNC(=O)c1ccc(N2C(=S)N(c3ccc(C#N)c(C(F)(F)F)c3)C(=O)C2(C)C)cc1F [Enzalutamide],CYP3A4 CLint for M2 formation,"[2]; PBPK model parameter, see text",0.002312 mL/min/pmol enzyme
same,"Peff,man",[2]; calculated from Caco-2 passive permeability calibrated to propranolol,5.15 10^–4 cm/s
same,Contribution of CYP2C8 on enzalutamide elimination,[2]; estimated from clinical DDI study with gemfibrozil,87%
same,CYP2C8 CLint for M2 formation,[2]; [14],0.1518 mL/min/pmol enzyme
same,CYP2C8 CLint for other pathway,[2]; [14],0.07475 mL/min/pmol enzyme
same,CYP3A4 CLint for other pathway,[2]; [14],0.003617 mL/min/pmol enzyme
same,AUC,clinical,322 µg·h/mL
same,AUC(0-inf),clinical,288 µg·h/mL
same,Tmax,clinical,0.75 h
same,half-life,clinical,77.7 h
same,Cmax,clinical; [15],16600 ng/mL
same,Cmax,clinical; [16],5660 ng/mL
same,EC50,CYP3A4 [3],1500 nM
same,Ki,CYP3A4 [4],42000 nM
same,"Cmin, observed",[5]; [15],12000 ng/mL
same,"Indmax on CYP3A4, calibrated","CYP3A4 [6]; calibrated with positive control rifampicin, Simcyp input",11.43
same,fu,[7],0.0244
same,Ki,OAT3,15100 nM
same,Ki,CYP3A5,42000 nM
same,Log P,[8],2.98
same,Papp,[9],31 ×10⁻⁶ cm/s
same,Vss,[10]; PBPK model parameter,0.967 L/kg
same,Estimated bioavailability based on mass balance data,[10]; oral,≥ 84%
same,IC50,P-gp (human MDR1),1670 nM
same,Ki,P-gp (human MDR1),1670 nM
"CC1(C)C(=O)N(c2ccc(C#N)c(C(F)(F)F)c2)C(=S)N1c1ccc(C(N)=O)c(F)c1 [M2, N-desmethyl enzalutamide]",Fold increase CYP2C19 mRNA,CYP2C19; 1 µmol/L,[…]
same,"CLint,HLM","[2]; PBPK model parameter, see text",1.399 μL/min/mg protein
same,CYP3A4 contribution to M2 elimination,[2]; set to recover M2 exposure after multiple doses of enzalutamide,9%
same,"AUCtau, observed",[5]; [15],278.3 µg·h/mL
same,"Cmax, observed",[5]; [15],12680 ng/mL
same,"Cmin, observed",[5]; [15],10570 ng/mL
same,"MPR (MWC), observed",[5]; [15],0.913
same,"AUCinf, observed",[5]; [16],395 µg·h/mL
same,"Cmax, observed",[5]; [16],887 ng/mL
same,"t1/2, observed",[5]; [16],179 h
same,fu,[7],0.0467
same,Ki,OAT3,11500 nM
same,IC50,"P-gp (human MDR1); read-out: IC50 (P-gp-mediated 3H-digoxin transport), 3H-digoxin 1 µmol/L, MDR1-expressing LLC-PK1 cells",1090 nM
same,Ki,"P-gp (human MDR1); read-out: Ki on P-gp, IC50 regarded as Ki, PBPK model input",1090 nM
"COc1ccc2[nH]c([S+]([O-])Cc3ncc(C)c(OC)c3C)nc2c1 (stereo not drawn) [Omeprazole, omeprazole, reference compound]",Fold increase P-gp mRNA,P-gp; 50 µmol/L,2.38 ± 1.68 fold
same,Fold increase CYP1A2 mRNA,CYP1A2 [12],46.4 ± 7.2 fold
"CO[C@H]1/C=C/O[C@@]2(C)Oc3c(C)c(O)c4c(O)c(c(/C=N/N5CCN(C)CC5)c(O)c4c3C2=O)NC(=O)/C(C)=C\C=C\[C@H](C)[C@H](O)[C@@H](C)[C@@H](O)[C@@H](C)[C@H](OC(C)=O)[C@@H]1C [Rifampicin, rifampicin]",Increase in intestinal P-gp expression,intestinal P-gp,3.5 fold
"O=C(NC[C@H]1CN(c2ccc(N3CCOCC3=O)cc2)C(=O)O1)c1ccc(Cl)s1 [Rivaroxaban, rivaroxaban]",Decrease in AUC by rifampicin,P-gp and CYP3A; rivaroxaban,49%
same,Contribution of CYP3A to hepatic metabolism,CYP3A and P-gp [13],61%
